{"source": "paper PMC13326014", "about": "(Advanced Science, 2026)", "key": {"[1]": {"test_system": "INS‐1E‐Ct cells", "assay": "CellTiter‐Glo ATP viability, empty‐vector control cells", "type": "cell-based, rat", "conditions": "Antp‐QBP1 5–20 µM, 48 h", "description": "(§1) Rat insulinoma–derived pancreatic β‐cell lines (INS‐1E, INS‐1E‐hIAPP, and INS‐1E‐Ct) were kindly provided by Dr. Anna Novials (IDIBAPS, Barcelona) and characterized as previously described. INS‐1E‐hIAPP cells, which stably express human IAPP, were used as an overexpression model, whereas INS‐1E‐Ct cells transfected with an empty vector served as controls.\n• – hIAPP overexpression conditions ."}, "[2]": {"test_system": "INS‐1E β‐cells", "assay": "CellTiter‐Glo ATP viability, exogenous hIAPP oligomers", "conditions": "48 h, 16.7 mM glucose", "protocol": "Dried hIAPP or rIAPP peptide (0.5 mg) was reconstituted in 10 mM phosphate‐buffered saline (PBS, pH 7.4) with 2% DMSO and 2 mM sodium azide to a final concentration of 300 µM. rIAPP was included as a non‐amyloidogenic control peptide. After centrifugation at 16 000 x g for 50 min at 4°C to remove preformed aggregates, the supernatant (designated as “time zero”)—primarily populated by monomers—was used to initiate amyloidogenesis. Samples were vortexed and incubated at 25°C for 7 days without agitation to allow gradual formation of oligomers and fibrils. […] Aliquots were collected at different time points for biochemical characterization and β‐cells assays. […]\nThe fusion peptide was N‐terminally biotinylated and the two peptides were separated by two glycine residues as flexible linkers to minimize steric hindrance: Biotin‐[…]. • – Cell culture . […] Viability was assessed using the CellTiter‐Glo Luminescent Cell Viability Assay (Promega, Madison, WI, USA), which quantifies ATP content as an indicator of metabolically active cells, and AlamarBlue (Invitrogen, Thermo Fisher), based on the reduction of resazurin to the fluorescent product resorufin in metabolically active cells, following the manufacturer's instructions. Luminescence (CellTiter‐Glo) and fluorescence (AlamarBlue; Ex 560 nm / Em 590 nm) were recorded using a FLUOstar Omega microplate reader (BMG LABTECH). […]"}, "[3]": {"test_system": "INS‐1E β‐cells", "assay": "ICC of Antp‐QBP1 uptake (anti‐biotin) in INS‐1E β‐cells", "type": "cell-based, rat", "conditions": "48 h; for anti‐biotin (Red‐647) fluorescence intensity per cell: uptake by ICC", "protocol": "(§2) Cells were seeded in 24‐well plates (Corning, cat. #3526) on 12 mm coverslips pre‐treated with 1 mg/mL poly‐D‐lysine (Merck, cat. #P2636) in borate buffer (pH 8.0) at a density of 200,000 cells/mL. […] Primary antibodies against hIAPP (rabbit anti‐hIAPP, 1:400; Sigma‐Aldrich), biotin (goat anti‐biotin, 1:200; Invitrogen, cat. # 31852), oligomers (A11, 1:400, Invitrogen, cat. # AHB0052) and fibrils (OC, 1:200, Millipore, cat. # AB2286) were applied overnight at 4°C. Fluorophore‐conjugated secondary antibodies (Invitrogen) were added for 1 h at RT in darkness, followed by DAPI nuclear staining for 15 min. Coverslips were mounted with ProLong Gold (Life Technologies) and imaged using either a Leica DMI 6000 fluorescence microscope or a Leica Stellaris 8 stimulated emission depletion (STED) super‐resolution microscope, both equipped with a 40× oil‐immersion objective.\nThT‐stained and ICC samples were imaged using a Leica Stellaris 8 STED super‐resolution confocal microscope (Leica Microsystems, Germany). For ThT imaging, samples in Ibidi μ‐Slide 4 Well ibiTreat coverslips were excited at 488 nm and emission was collected between 509–580 nm. For ICC, fluorophores were excited at 405 nm (DAPI; 420–480 nm, HyD S1), 488 nm (Alexa Fluor 488/FITC; 500–550 nm, HyD S2) and 653 nm (Alexa Fluor 647; 665–750 nm, HyD X3), all acquired sequentially in counting mode to prevent spectral overlap. […] Z‐stacks were collected in optimized mode to generate 3D reconstructions of ThT fluorescence and ICC labeling. Image processing and quantitative analysis were conducted using ImageJ/Fiji (NIH, USA). Specifically, a custom Fiji macro based on the “Find Maxima” algorithm was implemented to detect local intensity peaks across the selected fluorescence channels. Fluorescence intensity per cell (a.u.) was calculated as the total signal per field divided by the number of DAPI‐positive nuclei, and the number of fluorescence spots per cell was defined as total local maxima per field normalized to nuclei count. […]"}, "[4]": {"test_system": "INS‐1E β‐cells", "assay": "AlamarBlue metabolic activity, exogenous hIAPP oligomers", "protocol": "Dried hIAPP or rIAPP peptide (0.5 mg) was reconstituted in 10 mM phosphate‐buffered saline (PBS, pH 7.4) with 2% DMSO and 2 mM sodium azide to a final concentration of 300 µM. rIAPP was included as a non‐amyloidogenic control peptide. After centrifugation at 16 000 x g for 50 min at 4°C to remove preformed aggregates, the supernatant (designated as “time zero”)—primarily populated by monomers—was used to initiate amyloidogenesis. Samples were vortexed and incubated at 25°C for 7 days without agitation to allow gradual formation of oligomers and fibrils. […] Aliquots were collected at different time points for biochemical characterization and β‐cells assays. For β‐cell assays involving extracellular hIAPP oligomers, samples were sonicated before use to disrupt early fibrils and enrich for oligomeric species.\nThe fusion peptide was N‐terminally biotinylated and the two peptides were separated by two glycine residues as flexible linkers to minimize steric hindrance: Biotin‐[…]. • – Cell culture . […] Viability was assessed using the CellTiter‐Glo Luminescent Cell Viability Assay (Promega, Madison, WI, USA), which quantifies ATP content as an indicator of metabolically active cells, and AlamarBlue (Invitrogen, Thermo Fisher), based on the reduction of resazurin to the fluorescent product resorufin in metabolically active cells, following the manufacturer's instructions. Luminescence (CellTiter‐Glo) and fluorescence (AlamarBlue; Ex 560 nm / Em 590 nm) were recorded using a FLUOstar Omega microplate reader (BMG LABTECH). Morphological changes were monitored by phase‐contrast microscopy (Leitz DM IRB, Leica, Germany) equipped with a Peltier temperature controller (Linkam, UK) set to 37°C and a Leica K5 camera. Images from at least three fields per condition were acquired at 10× and 20× magnification and analyzed with Leica LAS AF Lite software."}, "[5]": {"test_system": "INS‐1E‐hIAPP cells", "assay": "ICC of Antp‐QBP1 uptake in INS‐1E‐hIAPP cells", "type": "cell-based, rat", "conditions": "Antp‐QBP1 10 µM, 48 h", "protocol": "as §1, §2"}, "[6]": {"test_system": "Rin1056A β‐cells", "conditions": "cited from earlier work"}, "[7]": {"test_system": "hIAPP‐induced cytotoxicity", "conditions": "cited from earlier work"}, "[8]": {"biological_target": "T1, hIAPP (Homo sapiens, UniProt P10997)", "T1 construct": "hIAPP (1–37; cat. # RP11278); purchased GenScript (Netherlands) RP11278; host or cells: chemical synthesis", "T1 sequence (P10997 34-70)": "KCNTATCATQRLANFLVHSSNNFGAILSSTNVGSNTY", "assay": "1D 1H NMR loss of hIAPP signal (oligomerization kinetics)", "type": "biochemical", "conditions": "50 µM hIAPP, three‐fold excess (150 µM) inhibitor, PBS, 37°C", "protocol": "• – hIAPP/QBP1 interaction experiments. 1D ^1H and 2D ^1H‐^1H total correlation spectroscopy (TOCSY) (mixing time = 60 ms) and 2D ^1H‐^1H nuclear Overhauser effect spectroscopy (NOESY) (mixing times = 80 and 250 ms) spectra were recorded at 10°C in 90% H2O/ 10% D2O with 1 mM K2HPO4 and 1 mM sodium acetate buffer (pH 5.5) on 100 µM hIAPP (pre‐monomerized in a small volume of hexadeuterated DMSO) on a Bruker 800 MHz (^1H) spectrometer equipped with a ^1H, ^13C, ^15N cryoprobe, Neo console and z‐gradients. These conditions were chosen because they were previously reported to greatly slow the aggregation of hIAPP, affording time to allow the spectra to be recorded. The solutions also contained 100 µM DSS as the internal chemical shift reference. Spectra were assigned with the aid of the program POKY [62], and the assignments have been deposited in the BMRB database; with access code = 53405. […] The spectra were then analyzed for changes which could reveal atomic‐level details on the interaction between hIAPP and QBP1. • – hIAPP aggregation experiments. A second set of NMR experiments were performed in PBS (90% H2O/ 10% D2O) at 37°C. […] These experiments were performed on a Bruker 600 MHz (^1H) spectrometer equipped with a ^1H, ^13C, ^15N, ^31P cryoprobe, Neo console, and z‐gradients. The final sample pH was verified in situ based on the phosphate ^3 ^1P chemical shift."}, "[9]": {"conditions": "peptide alone, 48 h, Alamar Blue HS"}}, "note": "Read-outs that look alike come from different tables or passages of the source. Peptide text beside a SMILES is read from it.", "data": [{"compound": "CC[C@H](C)[C@H](NC(=O)CNC(=O)[C@@H]1CCCN1C(=O)[C@H](Cc1c[nH]c2ccccc12)NC(=O)[C@H](Cc1c[nH]c2ccccc12)NC(=O)[C@H](CCCCN)NC(=O)[C@H](Cc1c[nH]c2ccccc12)NC(=O)CNC(=O)CNC(=O)[C@H](CCCCN)NC(=O)[C@H](CCCCN)NC(=O)[C@H](Cc1c[nH]c2ccccc12)NC(=O)[C@H](CCCCN)NC(=O)[C@H](CCSC)NC(=O)[C@H](CCCNC(=N)N)NC(=O)[C@H](CCCNC(=N)N)NC(=O)[C@H](CC(N)=O)NC(=O)[C@H](CCC(N)=O)NC(=O)[C@H](Cc1ccccc1)NC(=O)[C@H](Cc1c[nH]c2ccccc12)NC(=O)[C@@H](NC(=O)[C@H](CCCCN)NC(=O)[C@@H](NC(=O)[C@H](CCC(N)=O)NC(=O)[C@H](CCCNC(=N)N)NC(=O)CCCC[C@@H]1SC[C@@H]2NC(=O)N[C@@H]21)[C@@H](C)CC)[C@@H](C)CC)C(=O)N[C@@H](Cc1ccccc1)C(=O)O", "note": "[Antp‐QBP1]", "values": [{"measurement": "effect on ATP levels in control (Ct) cells", "setting": "[1]", "result": "did not alter ATP levels"}, {"measurement": "effect of peptide alone on ATP levels", "setting": "[2]", "result": "did not alter ATP levels"}, {"measurement": "number of intracellular Red‐647 fluorescent spots per cell vs hIAPP alone", "setting": "[3]; 10 µM Antp‐QBP1 alone or with 10 µM hIAPP", "result": "significantly increased"}, {"measurement": "anti‐biotin (Red‐647) fluorescence intensity per cell", "setting": "[3]; 10 µM Antp‐QBP1 alone", "result": "400–600 a.u./cell"}, {"measurement": "anti‐biotin (Red‐647) fluorescence intensity per cell", "setting": "[3]; 10 µM Antp‐QBP1 with 10 µM hIAPP oligomers", "result": "~200", "unit": "a.u./cell"}, {"measurement": "effect of peptide alone on metabolic activity", "setting": "[4]; [9]", "result": "no significant effect"}, {"measurement": "intracellular delivery by immunostaining", "setting": "[5]", "result": "efficient intracellular delivery"}]}, {"compound": "CC[C@H](C)[C@H](NC(=O)CNC(=O)[C@@H]1CCCN1C(=O)[C@H](Cc1c[nH]c2ccccc12)NC(=O)[C@H](Cc1c[nH]c2ccccc12)NC(=O)[C@H](CCCCN)NC(=O)[C@H](Cc1c[nH]c2ccccc12)NC(C)=O)C(=O)N[C@@H](Cc1ccccc1)C(N)=O", "note": "[QBP1] (Ac-WKWWPGIF-NH2)", "values": [{"measurement": "effect of peptide alone on metabolic activity", "setting": "[4]; [9]", "result": "no significant effect"}]}, {"compound": "CC(C)C[C@H](NC(=O)[C@H](CC(N)=O)NC(=O)[C@H](CC(N)=O)NC(=O)[C@H](CO)NC(=O)[C@H](CO)NC(=O)[C@H](CCCNC(=N)N)NC(=O)[C@@H](NC(=O)[C@H](CC(C)C)NC(=O)[C@H](Cc1ccccc1)NC(=O)[C@H](CC(N)=O)NC(=O)[C@H](C)NC(=O)[C@H](CC(C)C)NC(=O)[C@H](CCCNC(=N)N)NC(=O)[C@H](CCC(N)=O)NC(=O)[C@@H](NC(=O)[C@H](C)NC(=O)[C@@H]1CSSC[C@H](NC(=O)[C@@H](N)CCCCN)C(=O)N[C@@H](CC(N)=O)C(=O)N[C@@H]([C@@H](C)O)C(=O)N[C@@H](C)C(=O)N[C@@H]([C@@H](C)O)C(=O)N1)[C@@H](C)O)C(C)C)C(=O)NCC(=O)N1CCC[C@H]1C(=O)N[C@H](C(=O)N[C@@H](CC(C)C)C(=O)N1CCC[C@H]1C(=O)N1CCC[C@H]1C(=O)N[C@H](C(=O)N[C@@H](CC(N)=O)C(=O)N[C@H](C(=O)NCC(=O)N[C@@H](CO)C(=O)N[C@@H](CC(N)=O)C(=O)N[C@H](C(=O)N[C@@H](Cc1ccc(O)cc1)C(N)=O)[C@@H](C)O)C(C)C)[C@@H](C)O)C(C)C", "note": "[rIAPP, reference compound]", "values": [{"measurement": "effect of peptide alone on metabolic activity", "setting": "[4]", "result": "did not affect metabolic activity"}]}, {"compound": "D‐ANFLVH", "values": [{"measurement": "molar excess relative to IAPP required to prevent toxicity", "setting": "[6]", "result": "ten‐fold molar excess"}]}, {"compound": "FLPNF", "values": [{"measurement": "concentration required to reduce hIAPP‐induced cytotoxicity", "setting": "[7]", "result": "approximately 200 µM"}]}, {"compound": "epigallocatechin‐3‐gallate [EGCG]", "values": [{"measurement": "slowing of the rate of hIAPP oligomerization (NMR signal loss)", "setting": "[8]", "result": "~50", "unit": "%"}]}]}
